Data on one sequence can be found in PMC5048182, “Structure and specificity of the Type VI secretion system ClpV-TssC interaction in enteroaggregative Escherichia coli” (Scientific Reports, 2016).

Entries after “also recorded” stand apart in the source; their conditions may differ.

The assay relates to ClpV1-Nt (ClpV1 N-terminal domain). The assay is described as follows: Microscale thermophoresis (MST), binding of TssC N-terminal peptides to ClpV1-Nt. Further details: species or system enteroaggregative Escherichia coli. The note with it: 200 nM labeled ClpV1-Nt vs up to 500 μM peptide, 25 mM Tris-HCl pH 7.5, 200 mM NaCl, glycerol 5%, 0.05% Tween-20, triplicate. On the procedure: E. coli BL21 (DE3) pLysS cells carrying the pETG20A-ClpV1-Nt plasmid were grown at 37 °C in TB medium (1.2% peptone, 2.4% yeast extract, 72 mM K2HPO4, 17 mM KH2PO4, and 0.4% glycerol). Expression of clpV1-Nt was induced at A600 = 0.6 with 0.5 mM IPTG for 18 hours at 25 °C. Cells were then resuspended in lysis buffer (50 mM Tris-HCl pH 8.0, 300 mM NaCl, 1 mM EDTA, 0.5 mg/mL lysozyme, 1mM phenylmethylsulfonyl fluoride), submitted to several freeze-thawing cycles and sonicated after the addition of 20 μg/mL DNase and 20 mM MgCl2. Pellet and soluble fraction were separated by centrifugation for 30 min at 16,000 × g. The soluble fraction containing ClpV1-Nt was loaded onto a 5-mL Ni^2+ affinity column (HisTrap™ FF) using an ÄKTA Explorer apparatus (GE healthcare) and the immobilized proteins were eluted in 50 mM Tris-HCl pH8.0, 300 mM NaCl supplemented with 250 mM imidazole. The protein solution was desalted on a HiPrep 26/10 column (Sephadex^TM G-25, Amersham Biosciences), and ClpV1-Nt was obtained by cleavage using 2 mg of TEV protease for 18 hours at 4 °C and collected in the flow-through of a 5-mL Nickel column. The protein was concentrated using the centricon technology (Millipore, 10-kDa cut-off). […]
Microscale thermophoresis experiments were performed using a Monolith NT.115 apparatus (NanoTemper). […] Each data point was measured in triplicate. […]

As for “ATDDCLEEIINNTRA [TssC2 peptide, TssC2 (residues 15–29), […], synthesized by Genscript]”, the “binding to ClpV1-Nt (in words)” value is “no binding; also recorded: no interaction”.
